We go through six compounds from article PMC3578427 (Journal of medicinal chemistry, 2011).

Molecules are shown by their SMILES. Where a name gives a salt, the structure may show the parent alone.

One series concerns the target T1, hA3 AR (Homo sapiens, UniProt P0DMS8).
T1 sequence (P0DMS8 1-318): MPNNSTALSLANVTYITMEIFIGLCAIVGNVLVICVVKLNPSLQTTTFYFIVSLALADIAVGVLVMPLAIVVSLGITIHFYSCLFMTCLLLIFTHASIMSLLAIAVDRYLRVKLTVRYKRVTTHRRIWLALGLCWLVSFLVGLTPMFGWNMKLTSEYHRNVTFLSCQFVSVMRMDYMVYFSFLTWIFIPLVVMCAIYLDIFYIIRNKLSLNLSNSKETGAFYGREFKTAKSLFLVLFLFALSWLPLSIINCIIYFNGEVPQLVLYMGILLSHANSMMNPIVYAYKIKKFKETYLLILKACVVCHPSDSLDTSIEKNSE

In another series the target is T2, hA2B AR (Homo sapiens, UniProt P29275).
T2 sequence (P29275 1-332): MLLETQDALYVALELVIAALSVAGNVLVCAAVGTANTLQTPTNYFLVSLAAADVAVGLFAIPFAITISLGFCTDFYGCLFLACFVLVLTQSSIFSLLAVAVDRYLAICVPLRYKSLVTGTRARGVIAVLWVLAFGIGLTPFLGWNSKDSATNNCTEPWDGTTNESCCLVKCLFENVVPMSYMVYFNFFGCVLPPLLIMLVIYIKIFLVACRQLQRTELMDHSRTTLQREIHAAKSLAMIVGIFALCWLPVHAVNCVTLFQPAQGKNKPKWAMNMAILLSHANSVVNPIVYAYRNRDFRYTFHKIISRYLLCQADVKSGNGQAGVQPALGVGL

The nature of the next series: Water solubility. Format: physicochemical.
The test system of a further series is human (h) A2B AR. Particulars: cited from earlier work.

One may read the Ki as a measure of affinity in units of concentration, obtained from inhibition or displacement. On hA3 AR, `CC(C)(C)OC(=O)NCCNc1nc(N)n2nc(-c3ccco3)nc2n1` [Compound 10, 7-Amino-5-[(2-tert-butyloxycarbonylamino)ethyl]-amino-2(2-furyl) 1,2,4-triazolo [1,5-a] 1,3,5-triazine] came in with a Ki of roughly 1000 nM.

On to `CC(C)(C)OC(=O)NCC1CCC(CNc2nc(N)n3nc(-c4ccco4)nc3n2)CC1` (stereo not drawn) [Compound 11, 7-Amino-5-[(4-tert-butyloxycarbonylaminomethyl)cyclohexylmethyl]-amino-2(2-furyl) 1,2,4-triazolo [1,5-a] 1,3,5-triazine], for which the “activity at hA2B AR in the functional assay” value (“activity at hA2B AR” below) on hA2B AR is listed as “poorly active”. As usually defined, the solubility is the dissolved amount per volume that the medium holds. A higher solubility goes with a readily soluble substance. In the series “Water solubility”, `NCCOCCOCCNc1nc(N)n2nc(-c3ccco3)nc2n1.O=C(O)C(F)(F)F` [Compound 20, 7-Amino-5-[(8-amino)triethylenoxy]-amino-2(2-furyl) 1,2,4-triazolo [1,5-a] 1,3,5-triazine trifluoroacetate] registered a solubility of no less than 10 mM. For `Nc1nc(N)n2nc(-c3ccco3)nc2n1` [Compound 41, 5,7-diamino-2(2-furyl) 1,2,4-triazolo [1,5-a] 1,3,5-triazine], on hA2B AR, the “activity at hA2B AR” value is listed as “poorly active”. For `Nc1nc(NC(=O)c2ccccc2)n2nc(-c3ccco3)nc2n1` [Compound 43, 5-amino-7-phenylcarbonylamino-2(2-furyl) 1,2,4-triazolo [1,5-a] 1,3,5-triazine trifluoroacetate], the “activity at hA2B AR” value at hA2B AR is reported as “poorly active”.

As for `Nc1nc(NCCc2ccc(O)cc2)nc2nc(-c3ccco3)nn12` [ZM241385], in the series on human (h) A2B AR, the “affinity at hA2B AR” value is listed as 28 nM.
